How the values were obtained:
[1] = test system: circulating anti-Gal ASC (IgM and IgG); assay: in vivo effects of TPC administration on circulating anti-Gal ASC (ELISPOT); design: species or system cynomologous monkeys
Experimental: To each well of the first 10 columns of a sterile hydrazine modified polystyrene 96-well plate (Corning Costar, Cambridge, Mass.), 100 μL per well of a solution containing 3.2 mg/mL αGal(1,3)Gal β 1-4 GlcNAc, 3.1 mg/mL EDC and 2.4 mg/mL NHS were added in a darkened cold room and the reaction proceeded for four hours. After careful washing with sterile H2O, the plates were completely covered with plastic strips and stored at 4° C. until use. Plates were blocked with sterile 400 ul/well of PBS/1% HSA for 2 hours at 37° C. Peripheral blood mononuclear cells were isolated by Ficoll-Hypaque (specific gravity, 1.077 g/mL; Pharmacia Fine Chemicals, Piscatawy, N.J.) density gradients at 400 g for 30 min. at 22° C. Low density mononuclear cells at the interfaces were harvested, washed twice by centrifugation (400 g for 10 min.) and resuspended in serum-free complete culture medium consisting of RPMI 1640 (GIBCO, Grand Island, N.Y.) supplemented with 1% HSA, 2 mM L-glutamine, and 100 U/mL penicillin/100 ug/mL streptomycin (GIBCO, Grand Island, N.Y.). Manual hemacytometer cell counts and viability determinations were performed using trypan blue exclusion dye. Thereafter, serial dilutions of PBMNCs (starting at 5×10^5 cells) in 100 ul of serum-free complete culture medium were added to each well and incubated for 18-24 hours at 37° C. in 5% CO2. After washing 8 times using PBS/0.1% Tween-20, the plates were incubated with biotinylated isotype specific goat anti-human Abs (biotin goat anti-human IgM Cat#62-7540; biotin goat anti-human IgG (H&L) Cat# 62-7140, Zymed, San Francisco, Calif.)(1:1000) at 37° C. for 4 hours. After washing, streptavidin conjugated alkaline phosphatase (Cat# 43-4322, Zymed, San Francisco, Calif.) (1:1000) was added for 30 min. at 37° C. Finally, after washing an additional 8 times with PBS/0.1% Tween-20, 5-Bromo-4-chloro-3indolyl-phosphate (Cat# B-8503, Sigma, St. Louis, Mo.) dissolved in 1% low-melt sea-plaque agarose (FMC Bioproducts, Cat#50101) was added as gel substrate to each well. Plates were incubated overnight in the dark at room temperature and single Ab-secreting, spot forming cells (ASC) were visualized, analyzed and counted under low magnification using an inverted phase microscope. Data represents total isotype specific anti-gal Ab-secreting cells/10^6 PBMNCs, calculated from serially diluted cell samples.
To investigate the in vivo response of circulating anti-Gal ASC to TPC administration, we measured the number of ASC per 10^6 peripheral blood mononuclear cells isolated from cynomologous monkeys treated with either TPC (410S) or blocked-PEG as control. Blocked PEG is a 4-arm, 10,000 MW PEG-amine that was reacted with acetic anhydride in order to block the amine-groups of the PEG. Briefly, heparinized peripheral blood samples (2-3 mL) from TPC and PEG treated monkeys were obtained prior to experimentation, after 6 dosages of TPC, 7 days following porcine heart transplantation with daily infusions, 7 days post infusion termination, and 18 days post infusion. Mononuclear cells were isolated via Ficoll-Hypaque gradient centrifugation and assayed for anti-Gal IgM and IgG ASC using the ELISPOT assay as described in Example 15. […] In contrast, the number of IgG ASC in the PEG treated animal increased 14.9-fold with no detectable change in the number of IgM ASC. Seven days after the termination of TPC treatment, 14 days post transplantation, circulating IgG and IgM ASC were 27-84% and 1.3-9.8% of baseline values, respectively. In the PEG treated monkey, IgG ASC were 4.4 above baseline and IgM ASC levels reduced 51%.

[2] = test system: peripheral blood-derived ASCs; assay: short-term in vitro effects of TPC on peripheral blood-derived ASCs (ELISPOT); type: cell-based; details: 50 ug/mL TPC (410S), 2 hours at 37° C., heparinized peripheral blood from a normal donor
Experimental: To each well of the first 10 columns of a sterile hydrazine modified polystyrene 96-well plate (Corning Costar, Cambridge, Mass.), 100 μL per well of a solution containing 3.2 mg/mL αGal(1,3)Gal β 1-4 GlcNAc, 3.1 mg/mL EDC and 2.4 mg/mL NHS were added in a darkened cold room and the reaction proceeded for four hours. After careful washing with sterile H2O, the plates were completely covered with plastic strips and stored at 4° C. until use. Plates were blocked with sterile 400 ul/well of PBS/1% HSA for 2 hours at 37° C. Peripheral blood mononuclear cells were isolated by Ficoll-Hypaque (specific gravity, 1.077 g/mL; Pharmacia Fine Chemicals, Piscatawy, N.J.) density gradients at 400 g for 30 min. at 22° C. […] Plates were incubated overnight in the dark at room temperature and single Ab-secreting, spot forming cells (ASC) were visualized, analyzed and counted under low magnification using an inverted phase microscope. Data represents total isotype specific anti-gal Ab-secreting cells/10^6 PBMNCs, calculated from serially diluted cell samples.
short-term in vitro effects of TPC on peripheral blood-derived ASCs were assessed by incubating (2 hours at 37° C., with rotation at 6 rpm) heparinized peripheral blood from a normal donor in the presence or absence of 50 ug/mL TPC (410S). […]

IgM XNAs = assay: effect of TPC on xenoreactive antibody level in baboons; type: in vivo, baboon
From the text: The TPC molecule 410S was synthesized as described in Example 5 above. Baboons were first immunoapheresed using α-gal-columns in order to remove circulating αGal antibodies, and to set a basis for comparison of the ability of TPC to remove αGal antibodies from the circulation.
The procedures for treating and transplanting the baboons are described in Shu S. Lin et al., Transplant Immunol. 5:212-218, 1997. Descriptions of methods for making αGal-columns are contained in U.S. Pat. Nos. 5,695,759 and 5,651,968, which are herein incorporated by reference. Briefly, each baboon subject was prepared for plasma treatment by induction of anesthesia with ketamine HCl and pentamine, and anesthesia was then maintained during all procedures under inhalation and Forane™ gas. The subject's bloodstream was asceptically connected by intravenous puncture to a plasmapheresis machine which separated the plasma from the cells and platelets. The plasma was asceptically conducted to an α-gal column; effluent from the column was pumped and remixed on-line with the cells and platelets, and reinfused to the subject. This procedure was carried out continuously for 2-3 plasma volumes. The blood flow rate of 75-100 cc/min (with a plasma flow rate of 35-50 cc/min), was well tolerated by the subject. The entire column procedure lasted 1-1.5 hours.
250 mg of TPC (410S, as described in Example 5 above) was administered as noted in FIGS. 12 and 13.

[3] = day 7 post transplantation (porcine transgenic heart), daily TPC
[4] = seven days after termination of TPC treatment, 14 days post transplantation

(αGal(1,3)Gal β 1-4 GlcNAc)4-PEG [Example 410S]
IgG ASC values ([1]; 18 days post TPC termination): returned to near normal baseline values
circulating IgG ASC levels decreased [1, 3]: 70-99.7%
circulating IgM ASC levels decreased [1, 3]: 98.5-100%
circulating anti-Gal ASC (IgM and IgG) numbers inhibited ([1]; following 6 dosages of TPC over 18 days): 70-99%
circulating IgG ASC, % of baseline values [1, 4]: 27-84%
circulating IgM ASC, % of baseline values [1, 4]: 1.3-9.8%
effect on the number of detectable ASCs [2]: no effect
effect on total cell yield and viability [2]: no effect
IgM XNA, % pretreatment levels (IgM XNAs; Baboon 376-96, after next administration of 250 mg TPC): about 5%
circulating IgM XNA levels (IgM XNAs; Baboon 376-96, after second immunoapheresis plus 250 mg TPC): undetectable
circulating levels of IgM XNA (IgM XNAs; Baboon 376-96, six subsequent administrations of 250 mg TPC every 3 or 4 days): lower each time
IgM XNA, % pretreatment levels (IgM XNAs; Baboon 376-96, three days after first TPC (rebound)): 35%
levels of IgM XNAs (IgM XNAs; Baboon 377-96, infusion of 250 mg TPC after third immunoapheresis): undetectable
IgM XNA levels, % pretreatment levels (IgM XNAs; Baboon 377-96, three days after the 250 mg TPC infusion (rebound)): about 15%
